Data published in patent publication US20240389596A1, “INSECT, ACARINA AND NEMATODE PEST CONTROL” (priority 2021, published 2024).

Tested on: Spodoptera littoralis (Egyptian cotton leaf worm)
Experiment: Spodoptera littoralis (Egyptian cotton leaf worm) feeding/contact activity assay on cotton leaf discs
Type: in vivo
Conditions: for Mortality (%) Observed (%): single active ingredient, L1 larvae, 3 days after infestation; for Mortality (%) Expected (%): component B alone, value printed in the Expected column
Description: A synergistic effect exists whenever the action of an active ingredient combination is greater than the sum of the actions of the individual components. The action to be expected E for a given active ingredient combination obeys the so-called COLBY formula and can be calculated as follows (COLBY, S. R. “Calculating synergistic and antagonistic responses of herbicide combination”. Weeds, Vol. 15, pages 20-22 1967):
ppm=milligrams of active ingredient (a.i.) per liter X=% action by first active ingredient using p ppm of the active ingredient Y=% action by second active ingredient using q ppm of the active ingredient.
According to Colby, the expected (additive) action of active ingredients A+B using p+q ppm of active ingredient is
If the action actually observed O is greater than the expected action E, then the action of the combination is super-additive, i.e. there is a synergistic effect. In mathematical terms, synergism corresponds to a positive value for the difference of (O-E). In the case of purely complementary addition of activities (expected activity), said difference (O-E) is zero. A negative value of said difference (O-E) signals a loss of activity compared to the expected activity.
The synergistic biological activity of combinations of component (A) and component (B) as disclosed herein was assessed using a Spodoptera littoralis (Egyptian cotton leaf worm) feeding/contact activity assay. Cotton leaf discs were placed onto agar in 24-well microtiter plates and sprayed with aqueous test solutions prepared from 10′000 ppm DMSO stock solutions. After drying the leaf discs were infested with L1 larvae. The samples were assessed for mortality 3 days after infestation.

Question: How did the “Mortality (%) Observed (%)” value ([AI] 15.625 mg/L) turn out when `CCN(C(=O)c1cnn(C(C)C(C)C)c1C)c1ccnnc1` (stereo not drawn) [B-17, dimpropyridaz] was run?
Answer: Its value is 0%.

Question: What about the “Mortality (%) Observed (%)” value ([AI] 31.25 mg/L) of the same molecule?
Answer: Its value is 0%.

Question: What about the “Mortality (%) Observed (%)” value ([AI] 62.5 mg/L) of the same molecule?
Answer: The value was 0%.

Question: What about the “Mortality (%) Observed (%)” value ([AI] 125 mg/L) of the same molecule?
Answer: Its value is 0%.

Question: How did the “Mortality (%) Expected (%)” value ([AI] 7.812 mg/L) turn out when `Cc1cc(Cl)cc(C)c1C1=C(O)C2(CCC3(CC2)OCCO3)NC1=O` [B-18, spidoxamat] was run?
Answer: The value was 0%.

Question: What about the “Mortality (%) Expected (%)” value ([AI] 15.625 mg/L) of the same molecule?
Answer: Its value is 0%.

Question: What about the “Mortality (%) Expected (%)” value ([AI] 31.25 mg/L) of the same molecule?
Answer: The value was 0%.

Question: Which results are given for `C[n+]1c([O-])c(-c2ccccc2)c(=O)n2c1SC[C@@H]2c1cnc(Cl)s1` [B-4, fenmezoditiaz]?
Answer: Mortality (%) Observed (%) ([AI] 15.625 mg/L): 0%; Mortality (%) Observed (%) ([AI] 31.25 mg/L): 0%; Mortality (%) Observed (%) ([AI] 62.5 mg/L): 0%

Question: What does the source list for `CC(c1ccc(C(F)(F)F)nc1)S(C)(=O)=NC#N` (stereo not drawn) [B-55, sulfoxaflor]?
Answer: Mortality (%) Observed (%) ([AI] 62.5 mg/L): 0%; Mortality (%) Observed (%) ([AI] 125 mg/L): 0%; Mortality (%) Observed (%) ([AI] 250 mg/L): 10%

Question: With `CNC(=O)c1cc(Cl)cc(C)c1NC(=O)c1cc(Br)nn1-c1ncccc1Cl` [B-46, chlorantraniliprole] as the molecule, how does the “Mortality (%) Observed (%)” value ([AI] 0.062 mg/L) read?
Answer: The value was 0%.

Question: What about the “Mortality (%) Observed (%)” value ([AI] 0.125 mg/L) of the same molecule?
Answer: The value was 0%.

Question: What about the “Mortality (%) Observed (%)” value ([AI] 0.25 mg/L) of the same molecule?
Answer: Its value is 0%.

Question: What about the “Mortality (%) Observed (%)” value ([AI] 0.5 mg/L) of the same molecule?
Answer: Its value is 100%.

Question: With `CCS(=O)(=O)c1cccnc1-c1cnc(OCC(F)(F)C(F)(F)F)cn1` [B-10, 2-(3-ethylsulfonyl-2-pyridyl)-5-(2,2,3,3,3-pentafluoropropoxy)pyrazine] as the molecule, how does the “Mortality (%) Observed (%)” value ([AI] 0.625 mg/L) read?
Answer: The value was 0%.

Question: What about the “Mortality (%) Observed (%)” value ([AI] 1.25 mg/L) of the same molecule?
Answer: The value was 10%.

Question: What about the “Mortality (%) Observed (%)” value ([AI] 2.5 mg/L) of the same molecule?
Answer: The value was 50%.

Question: What about the “Mortality (%) Observed (%)” value ([AI] 5 mg/L) of the same molecule?
Answer: The value was 100%.

Question: What about the “Mortality (%) Observed (%)” value ([AI] 10 mg/L) of the same molecule?
Answer: The value was 100%.

Question: Which “Mortality (%) Observed (%)” value ([AI] 15.625 mg/L) does the source give for `O=c1c(-c2cccc(C(F)(F)F)c2)c([O-])[n+](Cc2cncnc2)c2ccccn12` [B-42, triflumezopyrim] here?
Answer: The value was 0%.

Question: And the “Mortality (%) Observed (%)” value ([AI] 31.25 mg/L)?
Answer: Its value is 0%.

Question: What about the “Mortality (%) Observed (%)” value ([AI] 62.5 mg/L) of the same molecule?
Answer: Its value is 0%.

Question: What about the “Mortality (%) Observed (%)” value ([AI] 125 mg/L) of the same molecule?
Answer: The value was 20%.

Question: And the “Mortality (%) Observed (%)” value ([AI] 250 mg/L)?
Answer: Its value is 20%.

Question: For `O=C(Nc1ccc(F)c(NC(=O)C(F)F)c1F)c1cc(NC(=O)[C@H]2[C@H](c3cc(C(F)(F)F)cc(C(F)(F)F)c3)C2(Cl)Cl)ccc1Cl` [A-1], which “Mortality (%) Observed (%)” value ([AI] 0.016 mg/L) is on record?
Answer: The value was 0%.

Question: What about the “Mortality (%) Observed (%)” value ([AI] 0.031 mg/L) of the same molecule?
Answer: The value was 0%.

Question: And the “Mortality (%) Observed (%)” value ([AI] 0.062 mg/L)?
Answer: Its value is 0%.

Question: What about the “Mortality (%) Observed (%)” value ([AI] 0.125 mg/L) of the same molecule?
Answer: The value was 0%.

Question: What about the “Mortality (%) Observed (%)” value ([AI] 0.25 mg/L) of the same molecule?
Answer: Its value is 80%.

Question: And the “Mortality (%) Observed (%)” value ([AI] 0.5 mg/L)?
Answer: Its value is 100%.
